Results as given in patent US20040077540A1, “Compositions and methods for modulating physiology of epithelial junctional adhesion molecules for enhanced mucosal delivery of therapeutic compounds” (Nastech Pharmaceutical Company Inc., priority 2002, published 2004).
Like-named read-outs stand apart in the source and are kept apart here. Where a SMILES comes first, the peptide text is derived from it. Where no end group is shown, it is not given here.

Tests used:
[1] = MTT assay, viability of mucosal epithelial tissue; assay type: cell-based; design: concentration or dose not given beside the values; conditions: human, EpiAirway™ units (mucosal epithelial tissue)
Description: MTT is a cell-permeable tetrazolium salt which is reduced by mitochondrial dehydrogenase activity to an insoluble colored formazan by viable cells with intact mitochondrial function or by nonmitochondrial NAD(P)H dehydrogenase activity from cells capable of generating a respiratory burst. […] We have employed a MTT reagent kit prepared by MatTek Corp for their units in order to assess viability.
A. The MTT reagent is supplied as a concentrate and is diluted into a proprietary DMEM-based diluent on the day viability is to be assayed (typically the afternoon of the day in which permeation kinetics and TER were determined in the morning). The final MTT concentration is 1 mg/mL
B. The final MTT solution is added to wells of a 24-well microplate at a volume of 300 μL per well. As has been noted above, this volume is sufficient to contact the membranes of the EpiAirway™ units but imposes no significant positive hydrostatic pressure on the cells.
C. The units are removed from the 24-well plate in which they were placed after TER measurements, and after removing any excess liquid from the exterior surface of the units, they are transferred to the plate containing MTT reagent. The units in the plate are then placed in an incubator at 37° C. in an atmosphere of 5% CO2 in air for 3 hours.
D. At the end of the 3-hour incubation, the units containing viable cells will have turned visibly purple. The insoluble formazan must be extracted from the cells in their units to quantitate the extent of MTT reduction. Extraction of the formazan is accomplished by transferring the units to a 24-well microplate containing 2 mL extractant solution per well, after removing excess liquid from the exterior surface of the units as before. This volume is sufficient to completely cover both the membrane and the apical surface of the units. Extraction is allowed to proceed overnight at room temperature in a light-tight chamber. MTT extractants traditionally contain high concentrations of detergent, and destroy the cells.
E. At the end of the extraction, the fluid from within each unit and the fluid in its surrounding well are combined and transferred to a tube for subsequent aliquotting into a 96-well microplate (200 μL aliquots are optimal) and determination of absorbance at 570 nm on a VMax multiwell microplate spectrophotometer. […] The “blank” for the determination of formazan absorbance is a 200 μL aliquot of extractant to which no unit had been exposed. This absorbance value is assumed to constitute zero viability.
F. Two units from each kit of 24 EpiAirway™ units are left untreated during determination of permeation kinetics and TER. These units are employed as the positive control for 100% cell viability. In all the studies conducted, there was no statistically significant difference in the viability of the cells in these untreated cells compared to viability of cells in control units which had been sham treated for permeation kinetics and on which TER determinations had been performed. The absorbance of all units treated with test formulations is assumed to be linearly proportional to the percent viability of the cells in the units at the time of the incubation with MTT. It should be noted that this assay is carried out typically no sooner than four hours after introduction of the test material to the apical surface, and subsequent to rinsing of the apical surface of the units during TER determination.
The MTT assays were performed using MTT-100, MatTek kits. […] of the MTT solution was added into each well. Tissue inserts were gently rinsed with clean PBS and placed in the MTT solution. The samples were incubated at 37° C. for 3 hours. After incubation the cell culture inserts were then immersed with 2.0 mL of the extractant solution per well to completely cover each insert. The extraction plate was covered and sealed to reduce evaporation. Extraction proceeds overnight at RT in the dark. […]

[2] = test system: EpiAirway™ units (mucosal epithelial tissue); test: LDH assay, cytolysis of EpiAirway units; assay type: cell-based
Description: While measurement of mitochondrial reductase activity by MTT reduction is a sensitive probe of cell viability, the assay necessarily destroys the cells and therefore can be carried out only at the end of each study. When cells undergo necrotic lysis, their cytotosolic contents are spilled into the surrounding medium, and cytosolic enzymes such as lactate dehydrogenase (LDH) can be detected in this medium. An assay for LDH in the medium can be performed on samples of medium removed at each time point of the two-hour determination of permeation kinetics. […] A. The recommended LDH assay for evaluating cytolysis of the EpiAirway™ units is based on conversion of lactate to pyruvate with generation of NADH from NAD. […] The formazan formed from reduction of INT is soluble, so that the entire assay for LDH activity can be carried out in a homogenous aqueous medium containing lactate, NAD, diaphorase, and INT. B. The assay for LDH activity is carried out on 50 μL aliquots from samples of “supernatant” medium surrounding an EpiAirway™ unit and collected at each time point. These samples were either stored for no longer than 24 h in the refrigerator or were thawed after being frozen within a few hours after collection. […] The aliquots are all transferred to a 96 well microplate. C. […] Thus, within experimental error, these sham-treated units show no cytolysis of the epithelial cells over the time course of the permeation kinetics measurements. D. […] This freeze-thaw cycle effectively lyses the cells and releases their cytosolic contents, including LDH, into the supernatant medium. […] E. To each well containing an aliquot of supernatant medium, a 50 μL aliquot of the LDH assay reagent is added. […] F. The reactions are terminated by addition of a “stop” solution of 1 M acetic acid, and within one hour of addition of the stop solution, the absorbance of the plate is determined at 490 nm. G.

[3] = test system: ciliary function in epithelial cell cultures; conditions: cited from earlier work
[4] = aqueous solution at physiologic pH; cited from earlier work
[5] = intraduodenal, rats, with 1% (w/v) saline dispersion of polycarbophil vs aqueous solution without polymer; cited from earlier work
[6] = test system: ciliary beating frequency; conditions: cited from earlier work
aminopeptidases = conditions: cited from earlier work
[7] = formulations comprising the permeabilizing peptide, read-out: MTT assay results (viability)
[8] = formulations comprising the permeabilizing peptide

## NIIQDFYNPL [NP-31]
[1]
  viability: > 80%
[2]
  toxic effects on viability of mucosal epithelial tissue, LDH assay: no significant adverse effects

## 2-alkyl-4-hydroxyquinolines [pyo compound]
[3]
  concentration producing ciliostasis / inhibiting ciliary motility: 50 µg/mL

## VVPEAQKREM [NP-33]
[1]; [7]
  viability: > 80%
[2]; [8]
  toxic effects on viability of mucosal epithelial tissue, LDH assay: no significant adverse effects

## YAGDNIVTAQ [NP-17]
[1]
  viability: > 80%
[2]
  toxic effects on viability of mucosal epithelial tissue, LDH assay: no significant adverse effects

## MTPVNARYEF [NP-28]
[1]; [7]
  viability: > 80%
[2]; [8]
  toxic effects on viability of mucosal epithelial tissue, LDH assay: no significant adverse effects

## CCN(CC)/[N+]([O-])=N/O.CCNCC [diethylamine/NO]
[4]
  rate (time) of NO release: < 3 min

## CC[C@H](C)[C@H](NC(=O)[C@H](CCCNC(=N)N)NC(=O)[C@@H](N)C(C)C)C(=O)N1CCC[C@H]1C(=O)O [NP-A, VRIP] (H-VRIP-OH)
[1]; [7]
  viability: > 80%
[2]; [8]
  toxic effects on viability of mucosal epithelial tissue, LDH assay: no significant toxic effects

## 9-desglycinamide, 8-arginine vasopressin [DGAVP]
[5]
  increase of bioavailability: 3-5 fold

## AATGLYVDQ [NP-24]
[1]; [7]
  viability: > 80%
[2]; [8]
  toxic effects on viability of mucosal epithelial tissue, LDH assay: no significant toxic effects

## GVNPTAQSS [NP-22]
[1]; [7]
  viability: > 80%
[2]; [8]
  toxic effects on viability of mucosal epithelial tissue, LDH assay: no significant toxic effects

## GILRDFYSPL [NP-27]
[1]; [7]
  viability: > 80%
[2]; [8]
  toxic effects on viability of mucosal epithelial tissue, LDH assay: no significant adverse effects

## VKLSCAY [NP-B, VKLSCAY]
[1]
  viability: > 80%
[2]
  toxic effects on viability of mucosal epithelial tissue, LDH assay: no significant toxic effects

## GFSSPRVEW [NP-21]
[1]
  viability: > 80%
[2]
  toxic effects on viability of mucosal epithelial tissue, LDH assay: no significant toxic effects

## YLYHYCVVD [NP-26]
[1]; [7]
  viability: > 80%
[2]; [8]
  toxic effects on viability of mucosal epithelial tissue, LDH assay: no significant toxic effects

## VPVSQKYELG [NP-32]
[1]; [7]
  viability: > 80%
[2]; [8]
  toxic effects on viability of mucosal epithelial tissue, LDH assay: no significant adverse effects

## CC(C)[C@H](NC(=O)[C@@H](N)CO)C(=O)N[C@H](C(=O)N[C@@H](CCCNC(=N)N)C(=O)O)[C@@H](C)O [NP-E, SVTR] (H-SVTR-OH)
[1]; [7]
  viability: > 80%
[2]; [8]
  toxic effects on viability of mucosal epithelial tissue, LDH assay: no significant toxic effects

## GFSLGLWMEC [NP-42]
[1]; [7]
  viability: > 80%
[2]; [8]
  toxic effects on viability of mucosal epithelial tissue, LDH assay: no significant adverse effects

## CCO [ethanol]
[6]
  concentration reducing the in vitro ciliary beating frequency: greater than 2%

## VPDSMKFEIG [NP-30]
[1]; [7]
  viability: > 80%
[2]; [8]
  toxic effects on viability of mucosal epithelial tissue, LDH assay: no significant adverse effects

## CC(C)CC(N)B(O)O (centres unmarked) [boro-leucine]
aminopeptidases
  effectiveness in enzyme inhibition relative to bestatin: more than 100 times
  effectiveness in enzyme inhibition relative to puromycin: more than 1000 times

## VASGQKREMG [NP-29]
[1]
  viability: > 80%
[2]
  toxic effects on viability of mucosal epithelial tissue, LDH assay: no significant adverse effects

## TGITFKSVT [NP-C]
[1]
  viability: > 80%
[2]
  toxic effects on viability of mucosal epithelial tissue, LDH assay: no significant toxic effects

## NTIIRDFYNP [NP-10]
[1]; [7]
  viability: > 80%
[2]; [8]
  toxic effects on viability of mucosal epithelial tissue, LDH assay: no significant adverse effects

## EDTGTYTCM [NP-8]
[1]
  viability: > 80%
[2]
  toxic effects on viability of mucosal epithelial tissue, LDH assay: no significant toxic effects

## DIYSTLLGLP [NP-41]
[1]; [7]
  viability: > 80%
[2]; [8]
  toxic effects on viability of mucosal epithelial tissue, LDH assay: no significant adverse effects

## GSLYGSQIY [NP-23]
[1]; [7]
  viability: > 80%
[2]; [8]
  toxic effects on viability of mucosal epithelial tissue, LDH assay: no significant toxic effects

## NCCN(CCN)/[N+]([O-])=N/O [diethylenetriamine/NO]
[4]
  rate (time) of NO release: approximately 20 hours

## ALCNQFYTP [NP-25]
[1]; [7]
  viability: > 80%
[2]; [8]
  toxic effects on viability of mucosal epithelial tissue, LDH assay: no significant toxic effects

## CC[C@H](C)[C@H](N)C(=O)N[C@H](C(=O)N[C@@H](C)C(=O)N[C@@H](CO)C(=O)O)[C@@H](C)O [NP-D, ITAS] (H-ITAS-OH)
[1]; [7]
  viability: > 80%
[2]; [8]
  toxic effects on viability of mucosal epithelial tissue, LDH assay: no significant toxic effects
